# Reference: a melting point compilation (Tetko et al.; mined from patent text by program, amines drawn as free bases though some values may be those of a salt)
row,melting point,Compound
1,159 to 163 °C,Cn1cc(C2=C(c3c4n(c5ccccc35)CC(NC(=O)OC(C)(C)C)CC4)C(=O)NC2=O)c2ccccc21 (stereo unspecified)
2,95 to 97 °C,CC(C)=CCN1C(=O)c2ccccc2C1=O
3,130 to 132 °C,CCCCS(=O)(=O)C1(CCCCN2CCC(N3Cc4ccccc4C3=O)CC2)c2ccccc2-c2ccccc21
4,96 °C,Cc1cc(F)ccc1-c1ccc(S(=O)(=O)N2c3ccccc3CC2C(=O)NCCOc2ccc(C(=O)O)cc2)cc1 (stereo unspecified)
5,114 to 116 °C,O=C(O)Cc1csc2cc(-c3ccccc3)cn12
6,94 to 96 °C,COc1ccc(Nc2nc(Nc3cc4c(cc3OC)CNC(CC3CC3)C(=O)N4C)ncc2Cl)c(-n2cccn2)c1 (stereo unspecified)
7,156 to 157 °C,CC(C)(C)OC(=O)C(Cc1ccccc1)NC(=O)c1ccc2c(Cl)cnc(Cl)c2c1 (racemic)
8,154 to 156 °C,CS(=O)(=O)c1ccc(-c2cnn(CC(F)=C(F)F)c(=O)c2-c2ccc(F)cc2)cc1
9,111 to 113 °C,NC(=NO)C1CCN(C(=O)OCc2ccccc2)CC1
10,54 to 55 °C,COCOCc1cccc(-c2ccc(C(=O)OC)cc2)c1
11,180 to 185 °C,COc1ccc(C(=O)Nc2ccc(Cl)cc2)cc1NC(=S)Nc1cc(Cl)cc(Cl)c1
12,207 to 209 °C,CC(C)(C)CC(=O)c1c(-c2ccc3cc(OCC(=O)O)ccc3c2)oc2ccccc12
13,164 °C,CC1NC(=O)CC2(C)CC1c1ccccc1O2 (stereo unspecified)
14,59 to 60 °C,c1ccc2c(c1)C[C@H]1Cc3ccccc3[C@H]1O2 (relative stereo)
15,132 to 133 °C,CCOC(=O)c1c(S(=O)(=O)Cc2nccn2C)nc2cc(OC)c(OC)cc2c1-c1ccc(OC)c(OC)c1
16,73 to 75 °C,CC(C)(C)OC(=O)N1[C@H](C=CCCCO)COC1(C)C
17,87.5 to 89 °C,CC1(C)OC(C=Cc2ccccn2)=CC1=O
18,80 to 81 °C,CCOC(=O)CCc1cc(-c2ccc(Cl)cc2)n(-c2ccc(OC)cc2)n1

row,melting point,Compound
1,87 to 89 °C,COC(=O)C=C1C=C(C(C)(C)C)C(=O)C(C(C)(C)C)=C1
2,194 to 195 °C,CC(C)(C)OC(=O)c1ccc(NC2CCc3cc4nc(COCc5ccccc5)[nH]c(=O)c4cc32)cc1 (racemic)
3,109 to 110 °C,COCc1cc2c(s1)CCCc1cc(=O)n(-c3ccc(C)cc3)nc1-2
4,249 to 251 °C,CCc1c(-c2ccc(OC)cc2)c2c3c(c4cc(OC)cc1n42)C(=O)OC3=O
5,204 to 205 °C,CCC(CC)c1ccc(Cl)c2nc3n(c12)CCCCN3c1ncc([N+](=O)[O-])cc1C
6,149 to 150 °C,CC(C)(C)c1ccc(/C=C/C(=O)Nc2ccc3occc3c2)cc1
7,112 to 113 °C,CCCCCCCCCC=CC(=O)C1C(=O)C=C(C)OC1=O (stereo unspecified)
8,121 to 122 °C,CCOC(=O)C(=O)Nc1c([N+](=O)[O-])ccc2c1CCCC2
9,192 °C,COc1ccc(C(=O)N2CC(O)CC2C(=O)O)cc1 (stereo unspecified)
10,68 to 70 °C,CN1C(=O)N(CCC(COc2ccc(-c3ccc(C#N)cc3)cc2)N(O)C=O)C(=O)C1(C)C (stereo unspecified)
11,164 to 166 °C,COc1cc(OC)nc(NC(=O)NS(=O)(=O)c2ccccc2C2CCOC2=O)n1 (stereo unspecified)
12,166 to 168 °C,N#Cc1ccc(C2CC(n3ccnc3)c3ccccc3N2)cc1 (stereo unspecified)
13,297 to 299 °C,O=c1ccc2c(-c3cccc(O)c3)nccc2[nH]1
14,152 to 154 °C,CC(C)Cn1c(CNC(=O)OC(C)(C)C)c(-c2ccc(Cl)cc2)c2cc(/C=C/C(N)=O)ccc2c1=O
15,143 °C,CCc1cc(N(C)Cc2ccc3oc(-c4ccccc4C#N)cc3c2)n2nccc2n1
16,219 to 221 °C,NS(=O)(=O)c1cc2ncccc2o1
17,225 to 227 °C,COc1ccc(-c2nc(C)[nH]c3cc(-c4ccccc4)nc2-3)cc1
18,145 °C,O=C1c2ccccc2C(=O)c2c(NC3CCCCC3)cccc21

# Second part, the compound before the results:
row,Compound,melting point
1,O=C(C1CC1)N1CCC2C1CCCC2(O)c1ccc(Cl)cc1 (stereo unspecified),167 to 169 °C
2,COc1cc(CCl)ccc1C12CC3CC(CC(C3)C1)C2,77 to 78 °C
3,Nc1nc(C[C@H](NC(=O)[C@H](Cc2ccccc2)NS(=O)(=O)N2CCOCC2)C(=O)O)cs1,149 to 151 °C
4,CCCC(CCC)c1ccc(COc2ccc(-c3csc(COc4cncc(C(=O)O)c4)n3)cc2)cc1,172 to 174 °C
5,COc1ccc(/C=C(\C#N)c2ccccc2F)cc1OC1CCCC1,70 to 73 °C
6,CC(=NOCCOS(C)(=O)=O)c1ccc(-c2ccc(F)cc2)cc1,103 to 106 °C
7,COc1ccc(OCC(C)Oc2ccc(OC)cc2)cc1 (stereo unspecified),84 to 84.5 °C
8,O=Cc1ccc(N2CCC3(CC2)OCCO3)c(Br)c1,63 to 64 °C
9,NCCCC(=O)N1CCC(c2[nH]nc3c2C(=O)c2c(NC(=O)NN4CCOCC4)cccc2-3)CC1,172 to 174 °C
10,CC1C(=O)N(Nc2ccccc2)C1C#C[Si](C)(C)C (stereo unspecified),136 °C
11,COc1ccc(CN(CC(=O)O)c2nc(NC(=O)Nc3ccccc3OC)nc(Nc3ccccc3-c3ccccc3)n2)cc1,147 to 149 °C
12,OC1C[C@H]2CN(C3=Nc4cc(Cl)ccc4Oc4ccccc43)CCN2C1 (stereo partly specified),90 to 92 °C
13,Cc1cc2cnnc(Cl)c2n1CC(C)C,96 to 99 °C
14,Cc1nc2ccccn2c1-c1csc(Nc2cccc(C(=O)Nc3ccccc3N)c2)n1,195 to 197 °C
15,COc1ccc(C(=NOCC(=O)O)c2ccc(OC)cc2)cc1,105 to 107 °C
16,CCCCN(C(=O)c1cnc(N2CC(C)(C)NC2=O)nc1N)c1cccc(C(F)(F)F)c1,154 to 155 °C
17,COC(=O)C1=C(C#N)NC(C)=C(C(=O)OCC(C)(C)C)C1c1ccccc1C#N (stereo unspecified),173 to 174 °C
18,O=S(=O)(c1ccccc1)n1c2ccc(C=Cc3ccccc3)cc2c2cc(Cl)cnc21,190 to 192 °C
19,CN1CC[C@@H](c2c(O)cc(O)c3c(=O)cc(-c4c(F)cccc4F)oc23)[C@@H]1CO,242 to 244 °C
20,O=C1Nc2cccc(-c3cccc4c3oc3ccccc34)c2C12COc1cc3c(cc12)OCO3 (stereo unspecified),> 230 °C

row,Compound,melting point
1,COc1ccc2c(c1)NC(=O)C2=Cc1[nH]c2c(c1CCC(=O)O)CCCC2,263 to 266 °C
2,C=C(C(=O)c1ccc(C(=O)O)cc1)c1cc(-c2cccs2)ccc1OC,> 250 °C
3,COc1ncnc(-c2cc(N)c(C#N)cc2F)c1Cl,186 to 189 °C
4,COC(=O)CCn1nnnc1CC[C@H](NC(=O)OCc1ccccc1)C(=O)OC,80 to 81 °C
5,CCCCc1cc(C(O)=S)cc(N)c1C(=O)c1ccccc1,144 to 145 °C
6,CCCOc1ccccc1-c1nc2cc3ncn(Cc4ccc(Cl)cc4)c3cc2c(=O)[nH]1,136 to 137 °C
7,Nc1nc(-c2cc(Cl)ccc2Cl)nc(N2CCC(Cc3ccccc3)CC2)n1,159 to 161 °C
8,CCCn1cc(C(=O)NCc2ccc(Cl)cc2)c(=O)c2cc(CO)sc21,174 to 175 °C
9,COc1cc(C)nc(NC(=O)NS(=O)(=O)c2cccc3c2S(=O)(=O)C(C)(C)S3(=O)=O)n1,191 to 200 °C
10,O=C(Nc1cnc2sc3c(c2c1-c1ccccc1Cl)CCC3)c1ccc(F)cc1F,219 to 220 °C
11,Cc1ccccc1Oc1cc(Cl)ccc1C(=O)O,158 to 159 °C
12,Cc1cc(C)c(NC(=O)N(Cc2cc3ccccc3c3ccccc23)C2CCCCC2)c(C)c1,125 to 128 °C
13,Cc1cc(-c2ccc3ncc(N)nc3c2)cc(C)c1O,256 °C
14,CN(C)S(=O)(=O)NC(c1ccccc1)P(=O)(Oc1ccccc1)Oc1ccccc1 (stereo unspecified),193 to 196 °C
15,CSc1nc(=O)n(-c2ccccc2F)c(=O)[nH]1,196 to 199 °C
16,Cc1ccc(-c2nc3c(O)cccc3s2)cc1,164 to 166 °C
17,CC(=O)OCCOC(=O)C1=C(C)NC(C)=C([N+](=O)[O-])C1c1ccccc1Cl (stereo unspecified),158 to 160 °C
18,CCCCCCCCCCCCCCCC(=O)C1(O)OC(COCc2ccccc2)C(OCc2ccccc2)C(OCc2ccccc2)C1OCc1ccccc1 (stereo unspecified),52 to 53 °C
19,O=C(Cl)c1ccc(Cl)c(S(=O)(=O)NC2CCCCC2)c1,119 °C
20,CNC(=O)O/N=C(/SC)C(F)(F)F,83 to 85 °C

row,Compound,melting point
1,Cc1ccccc1-n1c(CCl)nc2ccccc2c1=O,205 to 206 °C
2,CC(Cl)C(=O)c1ncc(Cl)cc1F (stereo unspecified),29 to 32 °C
3,Cn1c(=S)c(C(=O)C2=C(O)CCCC2=O)nc2ccccc21,> 300 °C
4,CC(C)NC(=O)OCC(=O)c1ccccc1,108 to 110 °C
5,O=C(NNS(=O)(=O)c1ccccc1)c1ccc2c(c1)CCO2,181 to 183 °C
6,O=C(CCc1ccccc1)N[C@H](Cc1cccc(Oc2ccccc2)c1)[C@@H](O)c1ccc(F)cc1 (racemic),91 to 93 °C
7,O=C(CCc1cc(-c2ccccc2)nc2ccccc12)N1CCCCC1,110 °C
8,O=C(O)c1ccccc1OCCN1CCC(c2cn(Cc3ccoc3)c3ncccc23)CC1,105 to 107 °C
9,CC(C)(C)CN(CC(O)C(Cc1ccccc1)NC(=O)C(CC(N)=O)NC(=O)c1ccc2ccccc2n1)C(=O)NC(C)(C)C (stereo unspecified),115 to 117 °C
10,C=CCN1CCCN(c2ccc(Cl)cc2C)C1=S,101 to 103 °C
11,Cc1cc(-c2ccc(Cl)cc2)nc(-c2ccnc(-c3ccc(S(N)(=O)=O)s3)c2)n1,232 °C
12,O=C1NCSc2ccsc21,136 to 138 °C
13,CC(C)C(C(=O)O)c1ccc(OCCNC(=O)C2Cc3ccccc3N2S(=O)(=O)c2ccc(-c3cc(C(F)(F)F)ccc3Cl)cc2)cc1 (stereo unspecified),84 to 88 °C
14,CCCCS(=O)(=O)c1c(Cl)nc(Cl)nc1Cl,71 to 72 °C
15,Cc1onc(C(=O)c2ccccc2Cl)c1N,75 to 78 °C
16,CCc1cc(Oc2ncc(C(F)(F)F)cc2Cl)n[nH]1,55 to 57 °C
17,CC1SC(N2N=C(c3ccc([N+](=O)[O-])cc3)c3cc4c(cc3CC2C)OCO4)=NC1=O (stereo unspecified),213 to 214 °C
18,C=C(C)C(=O)Nc1ccc(-n2nc(C(F)(F)F)cc2C(F)(F)F)cc1,160 to 162 °C
19,Cc1ccc(Cl)cc1N1C(=O)CN=C1SCc1ccccc1,140 to 142 °C
20,NC(=O)N(O)C1CCC(c2ccccc2)CC1 (stereo unspecified),161 to 162 °C
